target: T1, chimeric human H3 receptor (Homo sapiens, UniProt Q9Y5N1); assay: Chimeric human H3 receptor screening GTP binding assay (inhibition of histamine-stimulated GTP-gamma35S binding, Example 8); type: biochemical; conditions: 1 h; assay described in Example 8; symbol "!" in column headed Ki; read-out: Ki ("!": percent inhibition of agonist-induced GTP-gammaS binding to H3)
T1 construct: rat Galpha-i2 (Gnai2, rat); made in house; host or cells: Sf9 insect cells (baculovirus); P2 membranes
Procedure, shortened: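 Compound tested at 4 μM against 1 μM histamine stimulation; 125 pM GTP-gamma35S binding measured by filtration and scintillation after 60 min at room temperature. Membranes from Sf9 cells expressing chimeric human H3 plus G-protein subunits, in Tris pH 7.4/NaCl/MgCl2/GDP buffer; values are % inhibition after nonspecific subtraction.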

T1 sequence (Q9Y5N1 with tags, fused parts or gaps): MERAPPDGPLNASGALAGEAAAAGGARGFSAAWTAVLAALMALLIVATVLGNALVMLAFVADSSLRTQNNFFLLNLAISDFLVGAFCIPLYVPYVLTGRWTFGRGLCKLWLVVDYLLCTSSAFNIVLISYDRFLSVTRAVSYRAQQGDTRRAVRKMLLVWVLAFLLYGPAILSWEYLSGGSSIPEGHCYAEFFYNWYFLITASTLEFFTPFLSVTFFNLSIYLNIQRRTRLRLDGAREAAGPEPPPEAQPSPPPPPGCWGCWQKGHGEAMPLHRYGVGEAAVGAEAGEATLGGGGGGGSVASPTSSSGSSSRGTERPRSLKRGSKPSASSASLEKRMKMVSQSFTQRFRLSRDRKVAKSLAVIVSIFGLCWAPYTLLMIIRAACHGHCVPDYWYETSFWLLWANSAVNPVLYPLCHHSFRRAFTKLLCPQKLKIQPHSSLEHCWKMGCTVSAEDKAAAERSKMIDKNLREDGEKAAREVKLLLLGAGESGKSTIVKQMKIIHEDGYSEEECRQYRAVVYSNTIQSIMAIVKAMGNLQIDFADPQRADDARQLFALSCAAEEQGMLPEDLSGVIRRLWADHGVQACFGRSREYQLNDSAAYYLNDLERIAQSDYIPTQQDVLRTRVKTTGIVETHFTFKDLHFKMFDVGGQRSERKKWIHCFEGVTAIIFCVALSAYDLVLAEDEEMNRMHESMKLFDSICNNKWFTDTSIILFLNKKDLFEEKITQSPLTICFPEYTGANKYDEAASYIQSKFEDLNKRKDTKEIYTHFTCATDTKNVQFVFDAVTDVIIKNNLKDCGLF

Inhibition at 4 µM, ≥ 90%:
Cc1c(N)cccc1C(=O)N1CCc2cnc(N3CCN(C4CCC4)CC3)nc2CC1 [Compound 538, 3-{[2-(4-cyclobutylpiperazin-1-yl)-5,6,8,9-tetrahydro-7H-pyrimido[4,5-d]azepin-7-yl]carbonyl}-2-methylaniline]
O=C(Cc1cccc(F)c1)N1CCc2cnc(N3CCN(C4CCC4)CC3)nc2CC1 [Compound 513, 2-(4-cyclobutylpiperazin-1-yl)-7-[(3-fluorophenyl)acetyl]-6,7,8,9-tetrahydro-5H-pyrimido[4,5-d]azepine]
COc1ccc(/C=C/C(=O)N2CCc3cnc(N4CCN(C5CCC5)CC4)nc3CC2)cc1OC [Compound 560, 2-(4-cyclobutylpiperazin-1-yl)-7-[(2E)-3-(3,4-dimethoxyphenyl)prop-2-enoyl]-6,7,8,9-tetrahydro-5H-pyrimido[4,5-d]azepine]
CCOc1ccccc1C(=O)N1CCc2cnc(N3CCN(C4CCC4)CC3)nc2CC1 [Compound 415, 2-(4-cyclobutylpiperazin-1-yl)-7-(2-ethoxybenzoyl)-6,7,8,9-tetrahydro-5H-pyrimido[4,5-d]azepine]
O=C(/C=C/c1cccc(Cl)c1)N1CCc2cnc(N3CCN(C4CCC4)CC3)nc2CC1 [Compound 552, 7-[(2E)-3-(3-chlorophenyl)prop-2-enoyl]-2-(4-cyclobutylpiperazin-1-yl)-6,7,8,9-tetrahydro-5H-pyrimido[4,5-d]azepine]
O=C(c1ccccc1CCc1ccccc1)N1CCc2cnc(N3CCN(C4CCC4)CC3)nc2CC1 [Compound 411, 2-(4-cyclobutylpiperazin-1-yl)-7-[2-(2-phenylethyl)benzoyl]-6,7,8,9-tetrahydro-5H-pyrimido[4,5-d]azepine]
O=C(c1cnc2ccccc2c1)N1CCc2cnc(N3CCN(C4CCC4)CC3)nc2CC1 [Compound 482, 2-(4-cyclobutylpiperazin-1-yl)-7-(quinolin-3-ylcarbonyl)-6,7,8,9-tetrahydro-5H-pyrimido[4,5-d]azepine]
Cc1ccc(C(=O)N2CCc3cnc(N4CCN(C5CCC5)CC4)nc3CC2)cc1Cl [Compound 394, 7-(3-chloro-4-methylbenzoyl)-2-(4-cyclobutylpiperazin-1-yl)-6,7,8,9-tetrahydro-5H-pyrimido[4,5-d]azepine]
COc1ccc(/C=C/C(=O)N2CCc3cnc(N4CCN(C5CCC5)CC4)nc3CC2)c(OC)c1 [Compound 570, 2-(4-cyclobutylpiperazin-1-yl)-7-[(2E)-3-(2,4-dimethoxyphenyl)prop-2-enoyl]-6,7,8,9-tetrahydro-5H-pyrimido[4,5-d]azepine]

same assay, conditions: 1 h; assay of Example 8; symbol "!" in column headed Ki; read-out: percent inhibition of agonist-induced GTP-gammaS binding to H3

Inhibition at 4 µM, ≥ 90%:
O=C(CC1CCCCC1)N1CCc2cnc(N3CCN(C4CCC4)CC3)nc2CC1 [Compound 211, 2-(4-cyclobutylpiperazin-1-yl)-7-(cyclohexylacetyl)-6,7,8,9-tetrahydro-5H-pyrimido[4,5-d]azepine]
c1nc(N2CCN(C3CCC3)CC2)nc2c1CCN(CC1CC1)CC2 [Compound 254, 2-(4-cyclobutylpiperazin-1-yl)-7-(cyclopropylmethyl)-6,7,8,9-tetrahydro-5H-pyrimido[4,5-d]azepine]
O=C(COc1ccc(F)cc1)N1CCc2cnc(N3CCN(C4CCC4)CC3)nc2CC1 [Compound 317, 2-(4-cyclobutylpiperazin-1-yl)-7-[(4-fluorophenoxy)acetyl]-6,7,8,9-tetrahydro-5H-pyrimido[4,5-d]azepine]
CCOc1ccc(C(=O)N2CCc3cnc(N4CCN(C5CCC5)CC4)nc3CC2)cc1 [Compound 368, 2-(4-cyclobutylpiperazin-1-yl)-7-(4-ethoxybenzoyl)-6,7,8,9-tetrahydro-5H-pyrimido[4,5-d]azepine]
O=C(/C=C/c1c(Cl)cccc1Cl)N1CCc2cnc(N3CCN(C4CCC4)CC3)nc2CC1 [Compound 583, 2-(4-cyclobutylpiperazin-1-yl)-7-[(2E)-3-(2,6-dichlorophenyl)prop-2-enoyl]-6,7,8,9-tetrahydro-5H-pyrimido[4,5-d]azepine]
Cc1noc(C)c1C(=O)N1CCc2cnc(N3CCN(C4CCC4)CC3)nc2CC1 [Compound 201, 2-(4-cyclobutylpiperazin-1-yl)-7-[(3,5-dimethylisoxazol-4-yl)carbonyl]-6,7,8,9-tetrahydro-5H-pyrimido[4,5-d]azepine]
Cc1ncccc1C(=O)N1CCc2cnc(N3CCN(C4CCC4)CC3)nc2CC1 [Compound 202, 2-(4-cyclobutylpiperazin-1-yl)-7-[(2-methylpyridin-3-yl)carbonyl]-6,7,8,9-tetrahydro-5H-pyrimido[4,5-d]azepine]
COc1nc(N2CCN(C3CCC3)CC2)nc2c1CCN(C(=O)c1ccccc1)CC2 [Compound 270, 7-benzoyl-2-(4-cyclobutylpiperazin-1-yl)-4-methoxy-6,7,8,9-tetrahydro-5H-pyrimido[4,5-d]azepine]
O=C(Cc1c(Cl)ccc(Cl)c1Cl)N1CCc2cnc(N3CCN(C4CCC4)CC3)nc2CC1 [Compound 300, 2-(4-cyclobutylpiperazin-1-yl)-7-[(2,3,6-trichlorophenyl)acetyl]-6,7,8,9-tetrahydro-5H-pyrimido[4,5-d]azepine]
O=C(C1CCCC1)N1CCc2cnc(N3CCN(C4CCC4)CC3)nc2CC1 [Compound 217, 2-(4-cyclobutylpiperazin-1-yl)-7-(cyclopentylcarbonyl)-6,7,8,9-tetrahydro-5H-pyrimido[4,5-d]azepine]

same assay, conditions: symbol ! in Ki; test compound 4 μM, 1 μM histamine; read-out: percent inhibition of agonist-induced GTP-gammaS binding to H3

Inhibition at 4 µM, ≥ 90%:
CC(c1nccn1C)N1CCc2c(ncnc2N2CCN(C3CCC3)CC2)C1 (centres unmarked) [Compound 107, 4-(4-cyclobutylpiperazin-1-yl)-7-[1-(1-methyl-1H-imidazol-2-yl)ethyl]-5,6,7,8-tetrahydropyrido[3,4-d]pyrimidine]
O=C(CC1CCCC1)N1CCc2c(ncnc2N2CCN(C3CCC3)CC2)C1 [Compound 47, 4-(4-cyclobutylpiperazin-1-yl)-7-(cyclopentylacetyl)-5,6,7,8-tetrahydropyrido[3,4-d]pyrimidine]
CC(C)CN1CCc2nc(N3CCN(C4CCC4)CC3)ncc2C1 [Compound 631, 2-(4-cyclobutylpiperazin-1-yl)-6-isobutyl-5,6,7,8-tetrahydropyrido[4,3-d]pyrimidine]
Cc1ccc(CN2CCc3nc(N4CCN(C5CCC5)CC4)ncc3C2)cc1 [Compound 615, 2-(4-cyclobutylpiperazin-1-yl)-6-(4-methylbenzyl)-5,6,7,8-tetrahydropyrido[4,3-d]pyrimidine]
CCCCCN1CCc2ncnc(N3CCN(C4CCC4)CC3)c2CC1 [Compound 164, 4-(4-cyclobutylpiperazin-1-yl)-7-pentyl-6,7,8,9-tetrahydro-5H-pyrimido[4,5-d]azepine]
c1nc2c(c(N3CCN(C4CCC4)CC3)n1)CCN(Cc1ccc(N3CCOCC3)nc1)CC2 [Compound 155, 4-(4-cyclobutylpiperazin-1-yl)-7-[(6-morpholin-4-ylpyridin-3-yl)methyl]-6,7,8,9-tetrahydro-5H-pyrimido[4,5-d]azepine]

same assay, conditions: test compound 4 μM, 1 μM histamine; read-out: percent inhibition of agonist-induced GTP-gammaS binding to H3

Inhibition at 4 µM, ≥ 90%:
O=S(=O)(c1ccccc1)N1CCc2cnc(N3CCN(C4CCC4)CC3)nc2CC1 [Compound 12, 7-Benzenesulfonyl-2-(4-Cyclobutyl-piperazin-1-yl)-6,7,8,9-tetrahydro-5H-pyrimido[4.5-d]azepine]

Reference: patent US20080051387A1, “TETRAHYDROPYRIDO[3,4-D]PYRIMIDINES AND RELATED ANALOGUES” (priority 2006, published 2008)
